Test results from paper PMC3463759 (Clinical cancer research : an official journal of the …, 2012).
Where two headings read alike, the source gives them in different places.

Columns and labels:
[1] = for reduction of Cmax: paclitaxel with dasatinib (Cycle 2 Day 1) vs paclitaxel alone (Cycle 1 Day 1)
clinical = conditions: human, plasma, intravenous
[2] = paclitaxel alone, Cycle 1 Day 1, N=20
[3] = paclitaxel alone, Cycle 1 Day 1, N=20, dose-normalized to 175 mg/m^2
[4] = paclitaxel and dasatinib, Cycle 2 Day 1, N=18
[5] = paclitaxel and dasatinib, Cycle 2 Day 1, N=18, dose-normalized to 175 mg/m^2
[6] = paclitaxel with dasatinib vs paclitaxel alone

## CC(=O)O[C@H]1C(=O)[C@@]2(C)[C@H]([C@H](OC(=O)c3ccccc3)[C@]3(O)C[C@H](OC(=O)[C@H](O)[C@@H](NC(=O)c4ccccc4)c4ccccc4)C(C)=C1C3(C)C)[C@]1(OC(C)=O)CO[C@@H]1[C@@H](O)[C@@H]2O [6-OH paclitaxel]
[1]; in vivo
  inter-individual variability (%CV) for exposure: 40–70%
[1]; [2]
  T-HALF, Mean (SD): 1.26 h
[1]; [3]
  AUC(0-T), Geo Mean (%CV): 732 (53) ng•h/mL
  AUC(INF), Geo Mean (%CV): 771 (53) ng•h/mL
  Cmax, Geo Mean (%CV): 349 (44) ng/mL
[1]; paclitaxel alone, Cycle 1 Day 1, N=20, listed as 6-OH Paclitaxel
  T-HALF, Mean (SD): 1.26 (0.75) h
[1]; paclitaxel alone, N=20
  M/P, metabolite to parent ratio based on dose normalized AUC(INF), Mean (SD): 0.06 (0.04)
[1]; [4]
  T-HALF, Mean (SD): 0.94 h
[1]; [5]
  AUC(0-T), Geo Mean (%CV): 562 (68) ng•h/mL
  AUC(INF), Geo Mean (%CV): 615 (68) ng•h/mL
  Cmax, Geo Mean (%CV): 260 (58) ng/mL
[1]; paclitaxel and dasatinib, Cycle 2 Day 1, N=18, listed as 6-OH Paclitaxel
  T-HALF, Mean (SD): 0.94 (0.47) h
[1]; paclitaxel and dasatinib, N=18
  M/P, metabolite to parent ratio based on dose normalized AUC(INF), Mean (SD): 0.05 (0.02)
[1]
  reduction of Cmax: 25%
[1]; [6]
  reduction of geometric mean AUC(0-T): 23%
  reduction of geometric mean AUC(INF): 20%
  reduction of mean T-HALF: 25%

## CC(=O)O[C@H]1C(=O)[C@@]2(C)[C@H]([C@H](OC(=O)c3ccccc3)[C@]3(O)C[C@H](OC(=O)[C@H](O)[C@@H](NC(=O)c4ccccc4)c4ccccc4)C(C)=C1C3(C)C)[C@]1(OC(C)=O)CO[C@@H]1C[C@@H]2O [paclitaxel]
clinical
  MRT inf: 6.9 h
  Vd: 163 L
clinical; 175 mg/m^2
  AUC(0-inf): 16100 ng·h/mL
  AUC(0-t): 15700 ng·h/mL
  Cmax: 4820 ng/mL
  MRT inf: 6.7 h
[1]; paclitaxel alone vs paclitaxel in combination with dasatinib
  differences in mean T-HALF, MRT(INF), CLt, and Vss: less than 20%
[1]; [2]
  CLt, Mean (SD): 20.9 (6.3) L/h
  T-HALF, Mean (SD): 11.7 (1.6) h
[1]; [4]
  CLt, Mean (SD): 24.3 (6.0) L/h
  T-HALF, Mean (SD): 11.7 (3.8) h
[1]
  reduction of Cmax: 19%
[1]; [6]
  reduction of geometric mean AUC(0-T): 15%
  reduction of geometric mean AUC(INF): 14%
